# Experimental data as given in PubChem BioAssay AID1963444 (Molecular Pharmacology Branch, DTP, NCI, 2024).
# Test system: HSSY-II complex spheroid growth, percent test/control
# Test: Anticancer human tumor HSSY-II cell line growth inhibition [Asc];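 note: spheroids exposed to drug for 7 days before reading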
# Settings: for IC50: curve of first compound; for viability, T/C: stronger effect = lower value
# Procedure, shortened: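 Complex solid-tumor spheroids incorporating human endothelial and mesenchymal stem cells received single agents or combinations over half-log dilution ranges anchored to clinical Cmax.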
# [1] = second compound 0.1 µM, first compound 0.0316 µM
# [2] = second compound 0.1 µM, first compound 0.1 µM
# [3] = second compound 0.1 µM, first compound 0.316 µM
# [4] = second compound 0.1 µM, first compound 1 µM
# [5] = second compound 0.1 µM, first compound 3.16 µM
# [6] = second compound 0.1 µM, first compound 10 µM
# [7] = second compound 0.316 µM, first compound 0.0316 µM
# [8] = second compound 0.316 µM, first compound 0.1 µM
# [9] = second compound 0.316 µM, first compound 0.316 µM
# [10] = second compound 0.316 µM, first compound 1 µM
# [11] = second compound 0.316 µM, first compound 3.16 µM
# [12] = second compound 0.316 µM, first compound 10 µM
# [13] = second compound 1 µM, first compound 0.0316 µM
# [14] = second compound 1 µM, first compound 0.1 µM
# [15] = second compound 1 µM, first compound 0.316 µM
# [16] = second compound 1 µM, first compound 1 µM
# [17] = second compound 1 µM, first compound 3.16 µM
# [18] = second compound 1 µM, first compound 10 µM
smiles,measurement,setting,value
C#Cc1c(F)ccc2cc(O)cc(-c3ncc4c(N5CC6CCC(C5)N6)nc(OCC56CCCN5CC(F)C6)nc4c3F)c12 (stereo not given) + Cc1c(S(C)(=O)=O)c(-c2cc(F)cc(N3CCN(c4ccc(NS(=O)(=O)c5ccc(NC(CCN6CCC(C(=O)OCCCP(=O)(O)O)CC6)CSc6ccccc6)c(S(=O)(=O)C(F)(F)F)c5)cc4)CC3)c2)c(-c2ccc(Cl)cc2)n1C(C)C,IC50,second compound 0.1 µM,8.63 µM
same,IC50,second compound 0.316 µM,6.03 µM
same,IC50,second compound 1 µM,5.88 µM
same,IC50,second compound 3.16 µM,5.43 µM
same,IC50,second compound 10 µM,5.95 µM
same,"viability, T/C",[1],103%
same,"viability, T/C",[2],99.5%
same,"viability, T/C",[3],99.6%
same,"viability, T/C",[4],102%
same,"viability, T/C",[5],87.8%
same,"viability, T/C",[6],44%
same,"viability, T/C",[7],108%
same,"viability, T/C",[8],117%
same,"viability, T/C",[9],110%
same,"viability, T/C",[10],105%
same,"viability, T/C",[11],82%
same,"viability, T/C",[12],25%
same,"viability, T/C",[13],102%
same,"viability, T/C",[14],105%
same,"viability, T/C",[15],109%
same,"viability, T/C",[16],105%
same,"viability, T/C",[17],96.8%
same,"viability, T/C",[18],9.87%
same,"viability, T/C","second compound 3.16 µM, first compound 0.0316 µM",108%
same,"viability, T/C","second compound 3.16 µM, first compound 0.1 µM",115%
same,"viability, T/C","second compound 3.16 µM, first compound 0.316 µM",94.3%
same,"viability, T/C","second compound 3.16 µM, first compound 1 µM",101%
same,"viability, T/C","second compound 3.16 µM, first compound 3.16 µM",83.7%
same,"viability, T/C","second compound 3.16 µM, first compound 10 µM",13.2%
same,"viability, T/C","second compound 10 µM, first compound 0.0316 µM",105%
same,"viability, T/C","second compound 10 µM, first compound 0.1 µM",95.2%
same,"viability, T/C","second compound 10 µM, first compound 0.316 µM",92.6%
same,"viability, T/C","second compound 10 µM, first compound 1 µM",97.8%
same,"viability, T/C","second compound 10 µM, first compound 3.16 µM",74.9%
same,"viability, T/C","second compound 10 µM, first compound 10 µM",29.4%
O=C(c1cc(Cc2n[nH]c(=O)c3ccccc23)ccc1F)N1CCN(C(=O)C2CC2)CC1 + CNC(C)C(=O)NC1CN(S(=O)(=O)c2cccc(S(=O)(=O)N3CCC4CCC(C(=O)NC(c5ccccc5)c5ccccc5)N4C(=O)C(NC(=O)C(C)NC)C3)c2)CCC2CCC(C(=O)NC(c3ccccc3)c3ccccc3)N2C1=O,IC50,second compound 0.01 µM,2.65 µM
same,IC50,second compound 0.0316 µM,3.38 µM
same,IC50,second compound 0.1 µM,3.03 µM
same,IC50,second compound 0.316 µM,3.22 µM
same,IC50,second compound 1 µM,2.32 µM
same,"viability, T/C","second compound 0.01 µM, first compound 0.0316 µM",89%
same,"viability, T/C","second compound 0.01 µM, first compound 0.1 µM",102%
same,"viability, T/C","second compound 0.01 µM, first compound 0.316 µM",91.5%
same,"viability, T/C","second compound 0.01 µM, first compound 1 µM",83.5%
same,"viability, T/C","second compound 0.01 µM, first compound 3.16 µM",43.9%
same,"viability, T/C","second compound 0.01 µM, first compound 10 µM",11.6%
same,"viability, T/C","second compound 0.0316 µM, first compound 0.0316 µM",86.3%
same,"viability, T/C","second compound 0.0316 µM, first compound 0.1 µM",88.3%
same,"viability, T/C","second compound 0.0316 µM, first compound 0.316 µM",87.4%
same,"viability, T/C","second compound 0.0316 µM, first compound 1 µM",73.3%
same,"viability, T/C","second compound 0.0316 µM, first compound 3.16 µM",53.3%
same,"viability, T/C","second compound 0.0316 µM, first compound 10 µM",7.19%
same,"viability, T/C",[1],74.5%
same,"viability, T/C",[2],81.9%
same,"viability, T/C",[3],64.6%
same,"viability, T/C",[4],73.8%
same,"viability, T/C",[5],49.1%
same,"viability, T/C",[6],10.6%
same,"viability, T/C",[7],95.1%
same,"viability, T/C",[8],90.6%
same,"viability, T/C",[9],86.9%
same,"viability, T/C",[10],67.3%
same,"viability, T/C",[11],54.7%
same,"viability, T/C",[12],9.27%
same,"viability, T/C",[13],95.3%
same,"viability, T/C",[14],96.2%
same,"viability, T/C",[15],83%
same,"viability, T/C",[16],72%
same,"viability, T/C",[17],42%
same,"viability, T/C",[18],5.51%
O=C(c1ccc(F)c(F)c1Nc1ccc(I)cc1F)N1CC(O)([C@@H]2CCCCN2)C1 + CCN1C(C(=O)NC23CCC(C(=O)O)(CC2)CC3)C(c2cccc(Cl)c2F)C2(C(=O)Nc3cc(Cl)ccc32)C12CCCCC2,IC50,second compound 0.03 µM,0.485 µM
same,IC50,second compound 0.0949 µM,0.186 µM
same,IC50,second compound 0.3 µM,< 0.00316 µM
same,IC50,second compound 0.949 µM,< 0.00316 µM
same,IC50,second compound 3 µM,< 0.00316 µM
same,"viability, T/C","second compound 0.03 µM, first compound 0.00316 µM",101%
same,"viability, T/C","second compound 0.03 µM, first compound 0.01 µM",96.6%
same,"viability, T/C","second compound 0.03 µM, first compound 0.0316 µM",77.7%
same,"viability, T/C","second compound 0.03 µM, first compound 0.1 µM",98.5%
same,"viability, T/C","second compound 0.03 µM, first compound 0.316 µM",66.7%
same,"viability, T/C","second compound 0.03 µM, first compound 1 µM",21.7%
same,"viability, T/C","second compound 0.0949 µM, first compound 0.00316 µM",66.7%
same,"viability, T/C","second compound 0.0949 µM, first compound 0.01 µM",70.8%
same,"viability, T/C","second compound 0.0949 µM, first compound 0.0316 µM",67.9%
same,"viability, T/C","second compound 0.0949 µM, first compound 0.1 µM",59.9%
same,"viability, T/C","second compound 0.0949 µM, first compound 0.316 µM",41.2%
same,"viability, T/C","second compound 0.0949 µM, first compound 1 µM",15.8%
same,"viability, T/C","second compound 0.3 µM, first compound 0.00316 µM",30.3%
same,"viability, T/C","second compound 0.3 µM, first compound 0.01 µM",25.7%
same,"viability, T/C","second compound 0.3 µM, first compound 0.0316 µM",34.2%
same,"viability, T/C","second compound 0.3 µM, first compound 0.1 µM",28.1%
same,"viability, T/C","second compound 0.3 µM, first compound 0.316 µM",24.2%
same,"viability, T/C","second compound 0.3 µM, first compound 1 µM",7.55%
same,"viability, T/C","second compound 0.949 µM, first compound 0.00316 µM",6.94%
same,"viability, T/C","second compound 0.949 µM, first compound 0.01 µM",9.74%
same,"viability, T/C","second compound 0.949 µM, first compound 0.0316 µM",7.24%
same,"viability, T/C","second compound 0.949 µM, first compound 0.1 µM",6.73%
same,"viability, T/C","second compound 0.949 µM, first compound 0.316 µM",5.75%
same,"viability, T/C","second compound 0.949 µM, first compound 1 µM",2.34%
same,"viability, T/C","second compound 3 µM, first compound 0.00316 µM",2.22%
same,"viability, T/C","second compound 3 µM, first compound 0.01 µM",2.17%
same,"viability, T/C","second compound 3 µM, first compound 0.0316 µM",2.09%
same,"viability, T/C","second compound 3 µM, first compound 0.1 µM",2.02%
same,"viability, T/C","second compound 3 µM, first compound 0.316 µM",1.16%
same,"viability, T/C","second compound 3 µM, first compound 1 µM",0.62%
